According to patent publication US10800752B2, “Substituted naphtho[2,3-b]furans as water-soluble prodrugs for preventing and/or treating cancer” (BOSTON BIOMEDICAL, INC., priority 2015, dated 2020):

Tests used:
[1] = Evaluation of a conversion rate to 2-acetylnaphtho[2,3-b]furan-4,9-dione in human plasma; type: in vitro ADME; conditions: 1 umol/L, 37° C.
Summary of the method: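 Compounds at 1 umol/L incubated at 37° C in human plasma, CD1 mouse plasma or pH 7.4 phosphate buffer, sampled up to 120 minutes. After acidified acetonitrile protein removal, parent loss and conversion to 2-acetylnaphtho[2,3-b]furan-4,9-dione measured by LC-MS (ESI positive).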

Solution stability test = type: physicochemical; conditions: for % Residual ratio: 25 umol/L
Experimental: For Example 6, Example 11, and Example 22, the stability in each pH was measured. Test compounds at a concentration of 25 umol/L in respective buffer solutions prepared at pH 2.0, 3.0, 5.0, 7.4, and 9.0 were allowed to stand at 25° C. After 0, 3, 6, 9, 12, and 24 hours, they were measured with HPLC.
The buffer solutions used at respective pHs are as described below. pH 2.0: 50 mmol/L glycine buffer solution pH 3.0: 50 mmol/L citrate buffer solution pH 5.0: 50 mmol/L citrate buffer solution pH 7.4: 50 mmol/L phosphate buffer solution pH 9.0: 50 mmol/L glycine buffer solution
The measurement condition of HPLC is as described below.
Column temperature: 40° C.
Mobile phase: A: 0.1% trifluoroacetic acid-containing water

[2] = Pharmacokinetics test, intravenous administration; conditions: for Plasma Compound Concentration: Activated form 1 in plasma, 9.6 mg/kg (i.v.)
Experimental: For water-soluble prodrugs described in the EXAMPLES, the concentration of 2-acetylnaphtho[2,3-b]furan-4,9-dione (Activated form 1) in plasma was measured. Animal species, an administration method, a method of making standard solutions, and a method of measuring the concentration in plasma are as described below.
Animal: Seven-week-aged male CD1 (ICR) mice were used as an experimental animal.
Administration method: A test substance was weighed, and then dissolved in 50 mmol/L glycine buffered saline (pH 2.0) to produce an administration solution. The body weight of a mouse was measured, and the prepared administration solution was intravenously administered.
Blood collecting method: Heparin was added to a blood-collecting vessel, and blood was collected from a mouse. To the obtained blood, 46% of Citric acid was added in 1% volume. It was then centrifuged to obtain plasma. To the collected plasma, 1 mol/L HCl was added in 10% volume to produce a plasma sample. A sample obtained by adding 10% volume of 1 mol/L HCl to blank plasma was used as a blank sample.
Making of a standard solution: One mg of a test sample was weighed, and dissolved in 10 mL of acetonitrile using a measuring flask to make a standard solution of 100 ug/mL.
Measurement of the concentration in plasma: One hundred ug/mL of the standard solution was diluted in 50% acetonitrile solution to make calibration curve samples of target concentrations. Twenty uL of a blank sample was added to 18 uL of the calibration curve sample to make a plasma calibration curve sample. Eighteen uL of 50% acetonitrile solution was added to 20 uL of the administered plasma sample to make a sample for plasma analysis. One hundred uL of acetonitrile (containing 1% volume of 10 mol/L HCl) containing an internal standard was added to the plasma calibration curve sample and the sample for plasma analysis, respectively. It should be noted that phenytoin was used as the internal standard and its concentration was prepared in 100 nmol/L. 10 uL of each sample was analyzed with LC-MS. A calibration curve was made from a value (peak ratio) of the peak area of a test substance in MS divided by the peak area of the internal standard, and the concentrations of plasma calibration curve samples. The concentration in a sample was calculated from the peak ratio of each sample and the calibration curve.

Solubility test = conditions: 50 mmol/L glycine buffer solution (pH 2.0), room temperature, 24 hours shaking
Experimental: A water-soluble prodrug was added into 50 mmol/L glycine buffer solution (pH 2.0). After shaking at room temperature for 24 hours, the mixture was filtered through a membrane filter, and then the filtrate was measured with HPLC.
The measurement condition of HPLC is as described below. HPLC condition column: Acquity UPLC BEH C18, 1.7 um, 50×2.1 mm

[3] = Evaluation of a conversion rate to 2-acetylnaphtho[2,3-b]furan-4,9-dione in pH 7.4 phosphate buffer solution; type: physicochemical; conditions: 1 umol/L, 37° C.
Summary of the method: (§1)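 Compounds at 1 umol/L were incubated at 37° C in human plasma, CD1 mouse plasma or pH 7.4 phosphate buffer, sampled up to 120 minutes, acid/acetonitrile-deproteinised and analysed by LC-MS (ESI positive). Conversion (%) derived from the peak area ratio of the active form to phenytoin internal standard.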

[4] = Evaluation of a conversion rate to 2-acetylnaphtho[2,3-b]furan-4,9-dione in CD1 mouse plasma; type: in vitro ADME; conditions: CD1 mouse plasma, 1 umol/L, 37° C.
Summary of the method: as §1

In the case of `CC(=O)c1cc2c(OC(=O)NC[C@H](N)C(=O)O)c3ccccc3c(OC(=O)NC[C@H](N)C(=O)O)c2o1.Cl.Cl` [Example 6], the “% Measurement value of test compound (decrease rate)” value ([1]; Human plasma, incubation time 120 min) is reported as 0%, the “% Measurement value of test compound (decrease rate)” value ([1]; human plasma, incubation time 0 min) is reported as 100% and the “% Measurement value of test compound (decrease rate)” value ([1]; human plasma, incubation time 5 min) is reported as 0%. For the same compound, the “% Measurement value of test compound (decrease rate)” value ([1]; human plasma, incubation time 10 min) was 0%, the “% Measurement value of test compound (decrease rate)” value ([1]; human plasma, incubation time 30 min) was 0% and the “% Measurement value of test compound (decrease rate)” value ([1]; human plasma, incubation time 60 min) was 0%. For the same compound, the “stability in solution (in words)” value (Solution stability test; pH 2.0, 25° C.) was “very stable”, the “% Residual ratio” value (Solution stability test; pH 2.0, 25° C., 0 hr) was 100% and the “% Residual ratio” value (Solution stability test; pH 2.0, 25° C., 3 hr) was 100%. The “% Residual ratio” value (Solution stability test; pH 2.0, 25° C., 6 hr) was 100%, the “% Residual ratio” value (Solution stability test; pH 2.0, 25° C., 9 hr) was 100% and the “% Residual ratio” value (Solution stability test; pH 2.0, 25° C., 12 hr) was 100%. The “% Residual ratio” value (Solution stability test; pH 2.0, 25° C., 24 hr) was 99.8%, the “stability in solution (in words)” value (Solution stability test; pH 3.0, 25° C.) was “sufficient stability” and the “% Residual ratio” value (Solution stability test; pH 3.0, 25° C., 0 hr) was 100%. For the same compound, the “% Residual ratio” value (Solution stability test; pH 3.0, 25° C., 3 hr) was 99.0%, the “% Residual ratio” value (Solution stability test; pH 3.0, 25° C., 6 hr) was 98.2% and the “% Residual ratio” value (Solution stability test; pH 3.0, 25° C., 9 hr) was 97.5%. For the same compound, the “% Residual ratio” value (Solution stability test; pH 3.0, 25° C., 12 hr) was 96.6%, the “% Residual ratio” value (Solution stability test; pH 3.0, 25° C., 24 hr) was 93.6% and the “% Residual ratio” value (Solution stability test; pH 5.0, 25° C., 0 hr) was 100%. The “% Residual ratio” value (Solution stability test; pH 5.0, 25° C., 3 hr) was 27.3%, the “% Residual ratio” value (Solution stability test; pH 5.0, 25° C., 6 hr) was 10.8% and the “% Residual ratio” value (Solution stability test; pH 5.0, 25° C., 9 hr) was 3.6%. The “% Residual ratio” value (Solution stability test; pH 5.0, 25° C., 12 hr) was 0%, the “% Residual ratio” value (Solution stability test; pH 5.0, 25° C., 24 hr) was 0% and the “% Residual ratio” value (Solution stability test; pH 7.4, 25° C., 0 hr) was 100%. The “% Residual ratio” value (Solution stability test; pH 7.4, 25° C., 3 hr) was 0%, the “% Residual ratio” value (Solution stability test; pH 7.4, 25° C., 6 hr) was 0% and the “% Residual ratio” value (Solution stability test; pH 7.4, 25° C., 9 hr) was 0%. The “% Residual ratio” value (Solution stability test; pH 7.4, 25° C., 12 hr) was 0%, the “% Residual ratio” value (Solution stability test; pH 7.4, 25° C., 24 hr) was 0% and the “% Residual ratio” value (Solution stability test; pH 9.0, 25° C., 0 hr) was 100%. For the same compound, the “% Residual ratio” value (Solution stability test; pH 9.0, 25° C., 3 hr) was 0%, the “% Residual ratio” value (Solution stability test; pH 9.0, 25° C., 6 hr) was 0% and the “% Residual ratio” value (Solution stability test; pH 9.0, 25° C., 9 hr) was 0%. The “% Residual ratio” value (Solution stability test; pH 9.0, 25° C., 12 hr) was 0%, the “% Residual ratio” value (Solution stability test; pH 9.0, 25° C., 24 hr) was 0% and the “Plasma Compound Concentration” value ([2]; 0.083 hr, animal 1) was 4950 nM. The “Plasma Compound Concentration” value ([2]; 0.083 hr, animal 2) was 5870 nM, the “Plasma Compound Concentration” value ([2]; 0.083 hr, animal 3) was 5790 nM and the “Plasma Compound Concentration” value ([2]; 0.083 hr, mean) was 5540 nM. The “Plasma Compound Concentration” value ([2]; 0.5 hr, animal 1) was 1170 nM, the “Plasma Compound Concentration” value ([2]; 0.5 hr, animal 2) was 1070 nM and the “Plasma Compound Concentration” value ([2]; 0.5 hr, animal 3) was 1660 nM. For the same compound, the “Plasma Compound Concentration” value ([2]; 0.5 hr, mean) was 1300 nM, the “Plasma Compound Concentration” value ([2]; 1.0 hr, animal 1) was 530 nM and the “Plasma Compound Concentration” value ([2]; 1.0 hr, animal 2) was 280 nM. The “Plasma Compound Concentration” value ([2]; 1.0 hr, animal 3) was 380 nM, the “Plasma Compound Concentration” value ([2]; 1.0 hr, mean) was 400 nM and the “Plasma Compound Concentration” value ([2]; 2.0 hr, animal 1) was 250 nM. The “Plasma Compound Concentration” value ([2]; 2.0 hr, animal 2) was 500 nM, the “Plasma Compound Concentration” value ([2]; 2.0 hr, animal 3) was 410 nM and the “Plasma Compound Concentration” value ([2]; 2.0 hr, mean) was 390 nM. The “production of 2-acetylnaphtho[2,3-b]furan-4,9-dione (Activated form 1) (in words)” value ([2]; intravenously administered to mice) was “rapidly produced”, the “Solubility in pH 2.0 buffer solution” value (Solubility test) was 2.8 mg/mL and the “% Measurement value of test compound (decrease rate)” value ([3]; Phosphate buffer solution (pH 7.4), incubation time 120 min) was 0%. For the same compound, the “% Measurement value of test compound (decrease rate)” value ([3]; phosphate buffer solution (pH 7.4), incubation time 0 min) was 100%, the “% Measurement value of test compound (decrease rate)” value ([3]; phosphate buffer solution (pH 7.4), incubation time 5 min) was 0% and the “% Measurement value of test compound (decrease rate)” value ([3]; phosphate buffer solution (pH 7.4), incubation time 10 min) was 0%. For the same compound, the “% Measurement value of test compound (decrease rate)” value ([3]; phosphate buffer solution (pH 7.4), incubation time 30 min) was 0%, the “% Measurement value of test compound (decrease rate)” value ([3]; phosphate buffer solution (pH 7.4), incubation time 60 min) was 0% and the “% Measurement value of test compound (decrease rate)” value ([4]; incubation time 0 min) was 100%. For the same compound, the “% Measurement value of test compound (decrease rate)” value ([4]; incubation time 5 min) was 0%, the “% Measurement value of test compound (decrease rate)” value ([4]; incubation time 10 min) was 0% and the “% Measurement value of test compound (decrease rate)” value ([4]; incubation time 30 min) was 0%. For the same compound, the “% Measurement value of test compound (decrease rate)” value ([4]; incubation time 60 min) was 0% and the “% Measurement value of test compound (decrease rate)” value ([4]; incubation time 120 min) was 0%.
